Experimental data as given in US11702402B2, “Small molecules that block proteasome-associated ubiquitin receptor RPN13 function and uses thereof” (DANA-FARBER CANCER INSTITUTE, INC., priority 2018, dated 2023).

Experiments:
RPMI-8226 cells = experiment: RPMI-8226 cell viability; type: cell-based, Human; conditions: p53-mutated RPMI-8226; 48 hours
Text: (§1) The IC50 of WL40 for cell lines is shown.

MM.1S cells = conditions: human, 48 h
Experimental: FIGS. 4A and 4B show multiple myeloma 1S (MM.1S) cells treated with RA190, WL40, and WL44 at the indicated concentrations for 24 hours. Wst-1 assay was used to test cell viability.
In FIG. 13B, multiple myeloma cells (MM.1S) were treated with RA190 or compound JQRA at the indicated concentrations for 72 hours, and the percentage of viable cells was measured.
Purified CD138^+ patient MM cells, which were treated with DMSO control or WL40 at indicated concentrations for 48 hours, followed by assessment for cell viability using CellTiter-Glo assay (mean±SD of triplicate cultures; p<0.001). […] Normal PBMCs from healthy donors were treated with DMSO control or WL40 at indicated concentrations for 48 hours, and then analyzed for cell viability using CellTiter-Glo assay (mean±SD of quadruplicate cultures). […] MM.1S cells were cultured with or without patient BMSCs in the presence or absence of WL40 for 48 hours, and cell proliferation was measured by WST assay (mean±SD; n=3; p<0.0001). […] MM.1S cells were cultured with or without patient pDCs in the presence or absence of WL40 for 48 hours, and cell proliferation was measured by WST assay (mean±SD; n=3; p<0.0001).

[1] = test system: PARP, caspase-3, caspase-7, caspase-8, caspase-9; experiment: PARP/caspase immunoblot and caspase enzymatic activity; type: cell-based, Human
Experimental: (§2) FIGS. 22A to 22F show the mechanisms of WL40-induced MM cell death. […] MM.1S cells were treated with DMSO control or WL40 (200 nM) for 16 hours, and then analyzed for apoptosis using Annexin V/PI double staining assay (mean±SD; n=3; p<0.001). FIG. 22B is an immunoblot of MM.1S and ANBL6.BR cells, which were treated with DMSO control or WL40 (200 nM for MM.1S; 1 μM for ANBL6.BR) for 16 hours; protein lysates were then subjected to the immunoblotting using antibodies against poly ADP ribose polymerase (PARP), caspase-3, caspase-7, caspase-8, caspase-9, or β-actin. FL, full length; CF, cleaved fragment. FIG. 22C is a bar graph measuring enzymatic activity. MM.1S cells were treated with DMSO control or WL40 (200 nM) for 12 hours, followed by the measurement of caspase-3, caspase-8, or caspase-9 enzymatic activity (mean±SD; n=3; p<0.0001). FIG. 22D is an immunoblot of MM.1S and ANBL6.BR cells, which were treated with DMSO control or WL40 (200 nM for MM.1S; 1 μM for ANBL6.BR) for 16 hours; protein lysates were then subjected to the immunoblotting using specific antibodies against Cyclin-B1, Cell Division Cycle 25C (CDC25C), Cell Division Cycle 2 (CDCl2), or β-actin. […]

[2] = test system: MM.1S cells co-cultured with patient BMSCs; experiment: MM.1S co-culture with patient BMSCs (WST); type: cell-based, Human; conditions: 48 hours
Text: as §1

[3] = test system: cyclin-B1, CDC25C, and CDCl2; experiment: Cell-cycle regulatory protein immunoblot; type: cell-based, Human; conditions: MM.1S 200 nM; ANBL6.BR 1 μM; 16 hours
Experimental: as §2

CD138+ patient MM cells = experiment: Viability of CD138+ patient MM cells (CellTiter-Glo); type: cell-based; conditions: Homo sapiens, CD138+ patient MM cells (patients 1-4), 48 hours, read-out: cell viability IC50 range
Experimental: as §1
Human MM cell lines MM.1S, MM.1R, RPMI-8226, ANBL6.WT, ANBL6.BR, DOX40, INA6, and normal PBMCs were cultured in RPMI1640 complete medium. Informed consent was obtained from ah patients in accordance with the Helsinki protocol. MM CD138-positive cells, bone marrow stromal cells (BMSCs), and plasmacytoid dendritic cells (pDCs) from MM patients were isolated and cultured as described previously.^32

INA6 MM cells = experiment: INA6 cell viability; type: cell-based, Human; conditions: IL-6-dependent INA6; 48 hours
Text: as §1

RPN13 = RPN13 (Homo sapiens, UniProt Q16186); experiment: Rpn13 immunoblot in ANBL6.BR cells; type: cell-based; parameters: endogenous in cells; host or cells: MM.1S; MM.1S-CRBN KO; RPMI-8226; ANBL6.BR; conditions: ANBL6.BR (bortezomib-resistant); 400 nM; 16 hours
RPN13, sequence (Q16186 whole entry): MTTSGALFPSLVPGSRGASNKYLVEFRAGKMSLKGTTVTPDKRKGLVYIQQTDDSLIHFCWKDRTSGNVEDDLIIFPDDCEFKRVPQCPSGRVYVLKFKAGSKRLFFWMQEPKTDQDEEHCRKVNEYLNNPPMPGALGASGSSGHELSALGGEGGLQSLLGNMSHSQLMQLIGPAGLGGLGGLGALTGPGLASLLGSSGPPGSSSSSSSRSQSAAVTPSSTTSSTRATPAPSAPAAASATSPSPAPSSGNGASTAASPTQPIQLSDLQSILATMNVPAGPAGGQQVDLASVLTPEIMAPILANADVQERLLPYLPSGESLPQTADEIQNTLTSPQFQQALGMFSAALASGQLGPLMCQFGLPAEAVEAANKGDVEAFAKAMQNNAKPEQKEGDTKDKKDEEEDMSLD
Experimental: MM.1S cells, which were treated with DMSO control, bortezomib, or WL40 at indicated concentration for 3 hours; protein lysates were analyzed for different proteasome activities (CT-L, chymotrypsin-like; T-L, trypsin-like; C-L, caspase-like). FIG. 20B is a bar graph showing percent proteasome activity after normalization with DMSO control (mean±SD; n=3). Recombinant 20S proteasome was incubated with DMSO, bortezomib, or WL40 for 30 minutes, followed by assessment of the above-noted proteasome activities. FIG. 20C MM.1S cells were pretreated with exemplary proteasome inhibitor MG132 (10 μM) for 1 hour, followed by addition of WL40 (400 nM) for 8 hours. […] Total protein lysates were subjected to immunoblots for Rpn13 and α-tubulin. […] FIG. 20E ANBL6.BR cells were treated with WL40 (400 nM) or RA190 (500 nM) for 16 hours; protein lysates were subjected to immunoblot analysis using anti-Rpn13 or anti-β-actin Abs.
Cellular protein extracts were prepared using RIPA lysis buffer (50 mM Tris-HCl, 150 mM NaCl, 1% NP-40, 0.5% sodium deoxycholate, and 0.1% SDS). […]
Next, the effect of WL40 on additional MM cell lines, including p53-mutated RPMI-8226 cells or bortezomib-resistant ANBL6.BR cells, was evaluated. […]

## O=C1CCC(N2C(=O)c3cccc(NCCOCCOCCOCCC(=O)N[C@@H](Cc4ccccc4)C(=O)N4C/C(=C\c5ccc(Cl)c(Cl)c5)C(=O)/C(=C/c5ccc(Cl)c(Cl)c5)C4)c3C2=O)C(=O)N1 (stereo partly drawn) [WL40]
RPMI-8226 cells
  cytotoxic activity (cell viability): cytotoxic activity
MM.1S cells
  cytotoxicity (cell viability): more cytotoxic than the parental Rpn13 inhibitor RA190
[1]; 200 nM for MM.1S, 1 μM for ANBL6.BR, 16 hours
  PARP cleavage (immunoblot): proteolytic cleavage of Poly (ADP) ribose polymerase (PARP)
[1]; MM.1S 200 nM, immunoblot 16 hours, enzymatic activity 12 hours
  caspase activation: activation of caspase-3, caspase-7, caspase-8 and caspase-9
[2]
  viability of MM cells in co-culture: dose-dependent decrease in the viability of MM cells
[3]
  levels of cell-cycle regulatory proteins: reduction in the levels of cell-cycle regulatory proteins
CD138+ patient MM cells
  IC50: 0.095 to 0.17 µM
INA6 MM cells
  cytotoxic activity (cell viability): cytotoxic activity
RPN13
  Rpn13 levels (immunoblot): induced RPN13 degradation
